Source: ChEMBL document CHEMBL1240479, “Exploring benzcyclo derivatives as potent aromatase inhibitors using ligand-based modeling studies” (Eur J Med Chem, 2010)

Target: T1, Aromatase (Homo sapiens, UniProt P11511)
T1 sequence (P11511 whole entry): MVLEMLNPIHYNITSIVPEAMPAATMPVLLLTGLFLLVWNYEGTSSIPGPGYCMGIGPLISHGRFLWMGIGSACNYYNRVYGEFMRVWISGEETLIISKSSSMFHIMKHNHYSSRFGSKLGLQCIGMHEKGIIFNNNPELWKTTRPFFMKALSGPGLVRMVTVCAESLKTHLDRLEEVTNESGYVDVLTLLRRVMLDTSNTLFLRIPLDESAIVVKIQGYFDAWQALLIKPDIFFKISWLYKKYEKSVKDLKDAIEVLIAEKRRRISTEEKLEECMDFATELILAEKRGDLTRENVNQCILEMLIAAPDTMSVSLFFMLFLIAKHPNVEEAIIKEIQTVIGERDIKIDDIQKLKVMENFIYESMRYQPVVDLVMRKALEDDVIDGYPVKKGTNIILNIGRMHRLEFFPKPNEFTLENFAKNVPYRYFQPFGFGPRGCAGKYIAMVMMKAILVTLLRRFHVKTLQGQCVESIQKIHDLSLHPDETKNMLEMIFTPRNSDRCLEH
Experiment: Inhibition of aromatase

IC50 [µM]	SMILES
3.96	Brc1ccc2c(c1)CC/C2=C/c1ccncc1
3.4	Brc1ccc2c(c1)CCC2=Cc1ccncc1
3.68	C(=C(c1ccccc1)c1ccccc1)c1cccnc1
